# Patent publication US11141413B2, “Method of treating renal cell carcinoma using N-(4-(6,7-dimethoxyquinolin-4-yloxy)phenyl)-N′-(4-fluorophenyl)cyclopropane-1,1-dicarboxamide, (2S)-hydroxybutanedioate” (Exelixis, Inc., priority 2016, dated 2021)
# Columns and labels:
# CYP3A4 [1] = molecular target: T1, CYP3A4 (Homo sapiens, UniProt P08684); experiment: Clinical drug interaction: strong CYP3A4 inducer rifampin on cabozantinib; format: in vivo; set-up: from tissue; conditions: with rifampin 600 mg daily for 31 days, healthy subjects
# [2] = Population pharmacokinetic (PopPK) model (RCC patients and healthy volunteers); format: in vivo, human
# Method: The PopPK model was developed using nonlinear mixed effects modeling methodology (NONMEM v7.3) that incorporated 1650 measurable PK concentrations from 345 subjects (Table 10.1).
# Covariates were evaluated for effects on apparent plasma clearance (CL/F) and apparent volume of distribution of the central compartment (VF) (Table 10.2).
# In FIG. 10.1: • F1=fraction of dose in the first depot; • F2=fraction of dose in the second depot; • Ka=depot 1 absorption rate constant • Ka2=depot 2 absorption rate constant; • ALAG1=depot 1 absorption lag time; • ALAG2=depot 2 absorption lag time • Vc/F=apparent volume of distribution (central compartment); • Vp/F=apparent volume of distribution (peripheral compartment); • Q/F=apparent flow between plasma (central) and peripheral compartments; • CL/F=apparent plasma clearance
# male and female rats = conditions: rat, in vivo
# KIT = KIT (Homo sapiens, UniProt P10721); experiment: In vitro biochemical and/or cellular kinase assays
# mouse = experiment: In vivo mouse micronucleus assay
# female rats = experiment: 14-day general toxicology study in female rats; format: in vivo, rat; conditions: 5 mg/kg/day for 14 days
# ROS1 = ROS1 (Homo sapiens, UniProt P08922); experiment: In vitro biochemical and/or cellular kinase assays
# RET = RET (Homo sapiens, UniProt P07949); experiment: In vitro biochemical and/or cellular kinase assays
# pregnant rabbits = experiment: Embryo-fetal development study in pregnant rabbits; format: in vivo, rabbit; conditions: daily oral administration throughout organogenesis
# [3] = Excretion after single 140 mg 14C-cabozantinib dose in healthy subjects; format: in vivo, human
# Method: Approximately 81% of the total administered radioactivity was recovered within a 48-day collection period following a single 140 mg dose of an investigational ^14C-cabozantinib formulation in healthy subjects. Approximately 54% was recovered in feces and 27% in urine.
# rasH2 transgenic mice = experiment: 26-week carcinogenicity study; conditions: 26-week study
# [4] = test system: metastatic renal cell carcinoma (mRCC); experiment: CABOSUN (ALLIANCE A031203) trial, cabozantinib vs sunitinib as initial targeted therapy
# Method: Pts were randomized 1:1 to receive Cabo (60 mg QD) or Sun (50 mg QD, 4 weeks on/2 weeks off). Pts were stratified by the IMDC risk groups (intermediate vs. poor risk) and bone metastasis (yes, no). […] Secondary endpoints included OS, investigator-assessed overall response rate (ORR), and toxicity. The Kaplan-Meier product-limit estimator was used to estimate the OS between treatment arms.
# pregnant rats = experiment: Embryo-fetal development study in pregnant rats
# CYP2C8 = CYP2C8 (Homo sapiens, UniProt P10632); experiment: Metabolic pathways in vitro: effect of CYP inhibition on cabozantinib metabolite formation; format: in vitro ADME
# human lymphocytes = experiment: In vitro cytogenetic assay
# CYP3A4 [5] = molecular target: T1, CYP3A4; experiment: Clinical drug interaction: strong CYP3A4 inhibitor ketoconazole on cabozantinib; format: in vivo; set-up: from tissue; conditions: with ketoconazole 400 mg daily for 27 days, healthy subjects
# TRKB = TRKB (Homo sapiens, UniProt Q16620); experiment: In vitro biochemical and/or cellular kinase assays
# CYP2C19 = CYP2C19 (Homo sapiens, UniProt P33261); experiment: Metabolic pathways in vitro: effect of CYP inhibition on cabozantinib metabolite formation; format: in vitro ADME
# CYP2E1 = CYP2E1 (Homo sapiens, UniProt P05181); experiment: as above; format: in vitro ADME
# CYP1A2 [6] = molecular target: T2, CYP1A2 (Homo sapiens, UniProt P05177); experiment: In vitro CYP inhibition by cabozantinib; format: in vitro ADME
# patients = experiment: Cabozantinib clinical program: serious events and overdosage case; format: in vivo, human
# VEGFR-3 = VEGFR-3 (Homo sapiens, UniProt P35916); experiment: In vitro biochemical and/or cellular kinase assays
# CYP2D6 = CYP2D6 (Homo sapiens, UniProt P10635); experiment: In vitro CYP inhibition by cabozantinib; format: in vitro ADME
# P-gp = P-gp (Homo sapiens, UniProt P08183); experiment: Drug transporter systems in vitro; format: in vitro ADME
# CYP1A2 [7] = molecular target: T2, CYP1A2; experiment: Metabolic pathways in vitro: effect of CYP inhibition on cabozantinib metabolite formation; format: in vitro ADME
# FLT-3 = FLT-3 (Homo sapiens, UniProt P36888); experiment: In vitro biochemical and/or cellular kinase assays
# [8] = test system: female rats and offspring; experiment: Pre- and postnatal study in rats; conditions: oral, gestation day 10 through postnatal day 20
# [9] = final PopPK model parameter estimate
# [10] = final PopPK model parameter estimate, RCC patients and healthy volunteers
# T1 sequence (P08684 whole entry): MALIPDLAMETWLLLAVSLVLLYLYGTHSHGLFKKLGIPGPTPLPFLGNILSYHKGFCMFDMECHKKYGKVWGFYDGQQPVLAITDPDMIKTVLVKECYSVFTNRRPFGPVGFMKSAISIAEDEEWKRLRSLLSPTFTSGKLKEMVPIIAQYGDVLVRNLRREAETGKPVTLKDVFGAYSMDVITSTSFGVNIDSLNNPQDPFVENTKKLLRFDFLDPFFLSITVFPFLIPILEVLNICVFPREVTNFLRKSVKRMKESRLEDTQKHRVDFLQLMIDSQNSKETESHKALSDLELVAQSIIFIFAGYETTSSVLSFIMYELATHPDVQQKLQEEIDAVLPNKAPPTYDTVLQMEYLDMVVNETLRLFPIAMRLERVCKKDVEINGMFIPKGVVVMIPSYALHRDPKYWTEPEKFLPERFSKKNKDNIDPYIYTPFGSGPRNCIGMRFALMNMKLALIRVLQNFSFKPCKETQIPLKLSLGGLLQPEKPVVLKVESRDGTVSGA
# Chain of P-gp (P08183 whole entry): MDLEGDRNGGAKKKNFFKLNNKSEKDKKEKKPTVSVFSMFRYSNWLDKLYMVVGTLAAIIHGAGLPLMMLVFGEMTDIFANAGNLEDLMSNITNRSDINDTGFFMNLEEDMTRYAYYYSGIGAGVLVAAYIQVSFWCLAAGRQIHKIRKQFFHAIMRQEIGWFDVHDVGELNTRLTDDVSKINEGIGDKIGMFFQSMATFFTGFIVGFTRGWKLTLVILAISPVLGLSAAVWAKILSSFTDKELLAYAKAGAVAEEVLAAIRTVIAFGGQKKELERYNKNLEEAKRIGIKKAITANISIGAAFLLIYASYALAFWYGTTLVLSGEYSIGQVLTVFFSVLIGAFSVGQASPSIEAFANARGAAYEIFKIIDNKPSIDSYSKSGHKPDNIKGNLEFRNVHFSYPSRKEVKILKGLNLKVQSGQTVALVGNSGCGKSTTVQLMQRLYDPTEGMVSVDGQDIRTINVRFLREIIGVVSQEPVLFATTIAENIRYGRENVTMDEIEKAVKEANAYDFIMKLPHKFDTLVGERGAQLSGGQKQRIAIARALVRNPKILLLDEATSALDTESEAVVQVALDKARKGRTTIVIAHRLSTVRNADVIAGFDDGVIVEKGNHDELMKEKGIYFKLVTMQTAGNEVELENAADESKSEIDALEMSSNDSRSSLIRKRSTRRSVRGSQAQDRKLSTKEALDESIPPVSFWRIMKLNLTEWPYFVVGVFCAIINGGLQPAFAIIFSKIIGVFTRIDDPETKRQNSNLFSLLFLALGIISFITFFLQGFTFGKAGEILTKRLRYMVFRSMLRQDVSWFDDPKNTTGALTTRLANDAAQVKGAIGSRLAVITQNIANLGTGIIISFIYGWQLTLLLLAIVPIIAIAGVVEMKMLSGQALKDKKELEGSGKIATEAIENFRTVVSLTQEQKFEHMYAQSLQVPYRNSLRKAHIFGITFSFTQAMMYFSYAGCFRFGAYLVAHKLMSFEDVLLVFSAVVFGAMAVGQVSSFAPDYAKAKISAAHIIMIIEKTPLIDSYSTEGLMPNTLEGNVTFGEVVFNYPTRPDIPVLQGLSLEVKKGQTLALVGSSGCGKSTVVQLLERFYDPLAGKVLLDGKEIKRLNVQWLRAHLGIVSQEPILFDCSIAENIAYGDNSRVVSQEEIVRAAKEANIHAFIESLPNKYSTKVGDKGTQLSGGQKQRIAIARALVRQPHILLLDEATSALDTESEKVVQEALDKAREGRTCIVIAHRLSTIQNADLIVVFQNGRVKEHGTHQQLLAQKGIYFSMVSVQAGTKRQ
# T2 sequence (P05177 whole entry): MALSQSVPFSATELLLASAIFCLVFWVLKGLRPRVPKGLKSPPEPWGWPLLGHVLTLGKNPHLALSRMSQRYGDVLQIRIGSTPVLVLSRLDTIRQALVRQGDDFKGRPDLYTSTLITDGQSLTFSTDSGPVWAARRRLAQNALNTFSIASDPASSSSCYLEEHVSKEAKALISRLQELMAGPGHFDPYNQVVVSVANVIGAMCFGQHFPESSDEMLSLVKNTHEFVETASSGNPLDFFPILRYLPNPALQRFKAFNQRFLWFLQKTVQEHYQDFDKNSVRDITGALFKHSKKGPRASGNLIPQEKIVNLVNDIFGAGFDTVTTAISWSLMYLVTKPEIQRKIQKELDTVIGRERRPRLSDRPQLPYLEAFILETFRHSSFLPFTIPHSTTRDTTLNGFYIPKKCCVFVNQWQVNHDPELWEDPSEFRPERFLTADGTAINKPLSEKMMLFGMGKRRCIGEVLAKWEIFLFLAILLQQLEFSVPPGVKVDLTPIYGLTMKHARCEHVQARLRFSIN
# Chain of KIT (P10721 26-976): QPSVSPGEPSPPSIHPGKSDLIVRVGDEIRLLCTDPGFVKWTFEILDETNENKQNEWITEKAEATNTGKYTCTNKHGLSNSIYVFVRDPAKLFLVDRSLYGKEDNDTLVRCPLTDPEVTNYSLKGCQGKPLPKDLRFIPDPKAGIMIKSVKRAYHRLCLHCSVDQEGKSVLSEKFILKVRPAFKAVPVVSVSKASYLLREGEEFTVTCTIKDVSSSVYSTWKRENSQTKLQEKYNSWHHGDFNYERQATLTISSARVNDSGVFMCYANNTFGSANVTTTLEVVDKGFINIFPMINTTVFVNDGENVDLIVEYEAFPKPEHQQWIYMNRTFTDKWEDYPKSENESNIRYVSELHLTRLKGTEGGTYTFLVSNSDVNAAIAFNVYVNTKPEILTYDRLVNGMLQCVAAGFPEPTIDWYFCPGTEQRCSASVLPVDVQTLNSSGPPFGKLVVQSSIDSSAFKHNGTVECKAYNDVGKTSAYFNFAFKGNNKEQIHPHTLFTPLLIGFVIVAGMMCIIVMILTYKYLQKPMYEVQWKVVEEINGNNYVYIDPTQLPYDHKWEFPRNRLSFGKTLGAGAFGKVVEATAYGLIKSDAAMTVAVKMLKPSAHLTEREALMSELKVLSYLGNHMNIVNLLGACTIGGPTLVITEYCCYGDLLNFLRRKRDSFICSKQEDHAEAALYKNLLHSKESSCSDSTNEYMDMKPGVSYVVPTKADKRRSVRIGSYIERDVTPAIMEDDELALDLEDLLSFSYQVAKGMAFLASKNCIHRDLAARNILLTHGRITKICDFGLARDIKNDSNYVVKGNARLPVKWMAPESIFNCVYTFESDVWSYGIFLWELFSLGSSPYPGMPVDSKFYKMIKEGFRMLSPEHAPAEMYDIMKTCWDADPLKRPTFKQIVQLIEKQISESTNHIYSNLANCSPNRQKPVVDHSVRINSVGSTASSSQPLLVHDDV
# Chain of CYP2D6 (P10635 whole entry): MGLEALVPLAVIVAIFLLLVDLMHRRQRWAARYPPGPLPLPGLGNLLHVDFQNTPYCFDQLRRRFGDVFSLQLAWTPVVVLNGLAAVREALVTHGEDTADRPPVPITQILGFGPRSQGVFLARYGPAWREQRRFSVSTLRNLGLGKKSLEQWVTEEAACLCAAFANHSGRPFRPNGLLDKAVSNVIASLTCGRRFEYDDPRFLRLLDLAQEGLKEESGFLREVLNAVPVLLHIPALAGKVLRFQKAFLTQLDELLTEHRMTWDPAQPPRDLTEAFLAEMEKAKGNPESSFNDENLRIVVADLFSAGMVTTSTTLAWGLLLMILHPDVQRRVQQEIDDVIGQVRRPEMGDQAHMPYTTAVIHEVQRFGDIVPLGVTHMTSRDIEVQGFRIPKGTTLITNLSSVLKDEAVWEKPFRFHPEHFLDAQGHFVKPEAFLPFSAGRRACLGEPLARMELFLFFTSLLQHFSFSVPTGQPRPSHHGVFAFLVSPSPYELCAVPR
# Chain of CYP2C8 (P10632 whole entry): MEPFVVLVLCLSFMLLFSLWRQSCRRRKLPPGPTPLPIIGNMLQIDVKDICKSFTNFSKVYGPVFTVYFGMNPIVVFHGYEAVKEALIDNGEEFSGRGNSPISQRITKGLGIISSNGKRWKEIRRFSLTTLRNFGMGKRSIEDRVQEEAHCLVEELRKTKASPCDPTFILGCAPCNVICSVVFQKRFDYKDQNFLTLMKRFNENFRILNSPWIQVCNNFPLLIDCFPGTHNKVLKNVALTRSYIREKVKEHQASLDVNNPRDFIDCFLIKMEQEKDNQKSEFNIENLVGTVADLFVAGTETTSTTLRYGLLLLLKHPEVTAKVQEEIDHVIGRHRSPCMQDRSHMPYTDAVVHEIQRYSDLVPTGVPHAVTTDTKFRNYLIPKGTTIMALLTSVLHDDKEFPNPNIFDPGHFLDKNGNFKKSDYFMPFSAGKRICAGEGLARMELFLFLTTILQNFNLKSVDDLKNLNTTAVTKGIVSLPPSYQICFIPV
# Chain of CYP2C19 (P33261 whole entry): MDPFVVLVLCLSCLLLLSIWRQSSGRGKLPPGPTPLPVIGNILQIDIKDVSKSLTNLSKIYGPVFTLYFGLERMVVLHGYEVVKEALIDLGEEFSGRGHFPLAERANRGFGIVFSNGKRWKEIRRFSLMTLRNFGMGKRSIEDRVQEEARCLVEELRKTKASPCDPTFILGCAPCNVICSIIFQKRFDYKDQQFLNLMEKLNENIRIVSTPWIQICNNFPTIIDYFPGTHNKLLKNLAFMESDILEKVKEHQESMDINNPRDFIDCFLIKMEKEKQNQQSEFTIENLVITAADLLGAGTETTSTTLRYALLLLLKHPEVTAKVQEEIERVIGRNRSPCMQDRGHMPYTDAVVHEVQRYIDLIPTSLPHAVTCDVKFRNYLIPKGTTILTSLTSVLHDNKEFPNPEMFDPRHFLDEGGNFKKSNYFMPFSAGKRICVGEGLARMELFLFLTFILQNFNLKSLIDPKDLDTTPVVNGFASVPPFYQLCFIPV
smiles,measurement,setting,value
COc1cc2nccc(Oc3ccc(NC(=O)C4(C(=O)Nc5ccc(F)cc5)CC4)cc3)c2cc1OC [cabozantinib],Decrease in single-dose plasma cabozantinib exposure (AUC0-inf),CYP3A4 [1],77%
same,Predicted steady-state average concentration,[2]; 20 mg dose level,375 ng/mL
same,Predicted steady-state average concentration,[2]; 40 mg dose level,750 ng/mL
same,Predicted steady-state average concentration,[2]; 60 mg dose level,1125 ng/mL
same,"CL/F (oral clearance), PopPK estimate",[2]; White male,2.23 L/h
same,"Vc/F, PopPK estimate",[2]; White male,81.5 L
same,ALAG1 (depot 1 absorption lag time),[2]; [9],0.459 h
same,ALAG2 (depot 2 absorption lag time),[2]; [9],16.8 h
same,Q/F (apparent flow between plasma (central) and peripheral compartments),[2]; [9],14.2 L/h
same,"Vp/F (apparent volume of distribution, peripheral compartment)",[2]; [9],213 L
same,Ka2 (depot 2 absorption rate constant),[2]; [10],0.102 h⁻¹
same,Ka (depot 1 absorption rate constant),[2]; [10],0.568 h⁻¹
same,CL/F (apparent plasma clearance),"[2]; final PopPK model parameter estimate, White male",2.23 L/h
same,Inter-individual variability of CL/F,"[2]; human, in vivo",46 % CV
same,Lower CL/F in Asian vs White subjects,"[2]; human, in vivo",27%
same,Lower CL/F in female vs male subjects,"[2]; human, in vivo",21%
same,Vd/F,"[2]; human, plasma, oral, final PopPK model parameter estimate, White male, read-out: Vc/F (apparent volume of distribution, central compartment)",81.5 L
same,Vd,"[2]; human, plasma, oral, subject, read-out: Terminal phase volume of distribution, PopPK estimate",319 L
same,Doses at which female fertility was significantly reduced,male and female rats; female,≥ 1 mg/kg/day
same,Doses at which male fertility was significantly compromised,male and female rats; male,≥ 2.5 mg/kg/day
same,Inhibition of tyrosine kinase activity,KIT,inhibits
same,Clastogenicity,mouse,not clastogenic
same,Ovarian finding,female rats,exhibited ovarian necrosis
same,Inhibition of tyrosine kinase activity,ROS1,inhibits
same,Inhibition of tyrosine kinase activity,RET,inhibits
same,"Dose with visceral malformations and variations (reduced spleen size, missing lung lobe)",pregnant rabbits,3 mg/kg
same,Radioactivity recovered in feces,[3]; 48-day collection,Approximately 54%
same,Radioactivity recovered in urine,[3]; 48-day collection,~27%
same,Unchanged cabozantinib in urine,[3]; 72 hour collection,not detectable
same,"Unchanged cabozantinib, share of total radioactivity in feces",[3]; 72 hour collection,43%
same,Total administered radioactivity recovered,"[3]; within a 48-day collection period, single 140 mg dose",Approximately 81%
same,Carcinogenicity,rasH2 transgenic mice,not carcinogenic
same,"Diarrhea, grade 3 or 4",[4]; all-causality,10%
same,"Fatigue, grade 3 or 4",[4]; all-causality,6%
same,"Hematologic adverse events, grade 3 or 4",[4]; all-causality,3%
same,"Hypertension, grade 3 or 4",[4]; all-causality,28%
same,"Palmar-plantar erythrodysesthesia, grade 3 or 4",[4]; all-causality,8%
same,All-causality grade 3 or 4 adverse events,[4]; in vivo,67%
same,Median OS,[4]; in vivo,30.3 months
same,ORR,[4]; in vivo,46%
same,"OS adjusted HR, cabozantinib vs sunitinib",[4]; in vivo,0.80
same,Reduction in rate of progression or death vs sunitinib,[4]; in vivo,34%
same,Median PFS,"[4]; untreated mRCC, intermediate or poor risk",8.2 months
same,Dose causing increased embryo-fetal lethality compared to controls,pregnant rats; daily oral administration throughout organogenesis,0.03 mg/kg
same,Dose with delayed ossification and skeletal variations,"pregnant rats; female, rat, in vivo, 0.1 mg/kg/day",0.1 mg/kg/day
same,Effect of inhibition of CYP2C8 on cabozantinib metabolite formation,CYP2C8,no effect
same,Clastogenicity,human lymphocytes,not clastogenic
same,Increase in single-dose plasma cabozantinib exposure (AUC0-inf),CYP3A4 [5],38%
same,Inhibition of tyrosine kinase activity,TRKB,inhibits
same,Effect of inhibition of CYP2C19 on cabozantinib metabolite formation,CYP2C19,no effect
same,Effect of inhibition of CYP2E1 on cabozantinib metabolite formation,CYP2E1,no effect
same,Inhibition of CYP1A2 in vitro,CYP1A2 [6],does not inhibit
same,Fatal hemorrhages,"patients; human, in vivo",Fatal hemorrhages also occurred
same,Fatal perforations,"patients; human, in vivo",Fatal perforations occurred
same,Fatal thrombotic events,"patients; human, in vivo",Fatal thrombotic events occurred
same,Reversible Posterior Leukoencephalopathy Syndrome (RPLS),"patients; human, in vivo",occurred
same,Overdosage case findings,patients; twice the intended dose (200 mg daily) of another formulation for nine days,"Grade 3 memory impairment, Grade 3 mental status changes, Grade 3 cognitive disturbance, Grade 2 weight loss, and Grade 1 increase in BUN"
same,Inhibition of tyrosine kinase activity,VEGFR-3,inhibits
same,Inhibition of CYP2D6 in vitro,CYP2D6,does not inhibit
same,Inhibition of P-gp transport activities,P-gp,inhibitor
same,P-gp substrate status,P-gp,not a substrate
same,Effect of inhibition of CYP1A2 on cabozantinib metabolite formation,CYP1A2 [7],no effect
same,Inhibition of tyrosine kinase activity,FLT-3,inhibits
same,"Doses without adverse maternal toxicity or effect on pregnancy, parturition, lactation, offspring survival, growth or postnatal development",[8],up to 0.3 mg/kg/day
